# Reference: US12728116B2, “Methods of treating multiple sclerosis” (Vanda Pharmaceuticals Inc., priority 2021, dated 2026)
# How the values were obtained:
# Assay type in all cases: in vivo, human
# [1] = system: adult subjects with relapsing MS; experiment: Time to first 12-week / 24-week confirmed disability accumulation (CDA) on EDSS
# Experimental: Secondary efficacy variables and testing strategy: Four secondary efficacy endpoints were analyzed as per the statistical testing strategy outlined in FIG. 1. • Change from baseline to Week 108 in fatigue-related symptoms as measured by the symptoms domain of the FSIQ-RMS patient-reported outcome [Fatigue] • Cumulative number of combined unique active lesions from baseline to Week 108 on brain MRI [CUALs] • Time to first 12-week confirmed disability accumulation (CDA) from baseline to EOS on Expanded Disability Status Scale (EDSS) [12-week CDA] • Time to first 24-week CDA from baseline to EOS on EDSS [24-week CDA]
# (§1) A 12-week CDA is an increase of at least 1.5 in EDSS for subjects with a baseline EDSS score of 0.0 or an increase of at least 1.0 in EDSS for subjects with a baseline EDSS score of 1.0 to 5.0, or an increase of at least 0.5 in EDSS for subjects with a baseline EDSS score≥5.5 which is to be confirmed after 12 weeks.
# All EDSS measurements (with or without relapse, at a scheduled or unscheduled visit) were used to determine the onset of disability accumulation. However, EDSS scores used for confirmation of disability accumulation were obtained at a scheduled visit (i.e., unscheduled visits cannot be used as confirmatory visits) outside any ongoing relapse. In this context, relapse duration is defined as period between start and end dates if available and limited to 90 days from onset if end date is not available or duration is longer than 90 days.
# In order to confirm that the EDSS increase is persistent, all EDSS measurements between the onset and the 12-week EDSS confirmation (minus 7-day visit time-window) need to show an increase in EDSS, meeting the criteria for accumulation of disability as defined above.
# as §1, with “24-week” for “12-week”, “24” for “12”
# In order to confirm that the EDSS increase is persistent, all EDSS measurements between the onset and the 24-week EDSS confirmation (minus 7-day visit time-window) need to show an increase in EDSS, meeting the criteria for accumulation of disability as defined above.
# [2] = system: adult subjects with relapsing MS; experiment: Treatment-emergent adverse events (Safety Set); settings: for AESI effect on heart rate and rhythm (including hypotension) on Day 1: subjects with at least one AE, %: Day 1 (ponesimod dose 2 mg);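 on all read-outs here: safety Set comprises every randomized subject given one or more doses, analysed by the treatment actually received rather than the assigned arm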
# Experimental: The Safety Set (SAF) included all randomized subjects who received at least one dose of study treatment. Subjects were analyzed based on actual treatment taken, not randomized treatment.
# [3] = system: adult subjects with relapsing MS; experiment: 12-lead ECG heart rate and first-dose effects on Day 1
# Experimental: As per up-titration regimen, the dose of ponesimod on Day 1 is 2 mg.
# [4] = system: Patients (18-55 years) with RMS; experiment: Prespecified MRI-based endpoints and NEDA-3 status
# Experimental: Patients (18-55 years) with RMS (expanded disability status scale scores: 0-5.5) were randomized (1:1) to receive ponesimod (PON) 20 mg or teriflunomide (TER) 14 mg for 108 weeks. MRI assessments were: volume of T2 lesions; mean number of new gadolinium-enhancing (Gd+) T1 lesions and new/enlarging T2 lesions; and absence of active MRI lesions at week 108. NEDA-3 status (absence of confirmed relapse, Gd+T1 lesions and new/enlarging T2 lesions on annual MRIs, and 12-week confirmed disability accumulation) was evaluated from baseline to week 108.
# [5] = ponesimod 20 mg vs teriflunomide 14 mg, not statistically significant
# [6] = ponesimod 20 mg, teriflunomide 14 mg
# [7] = treatment-emergent AESI, Safety Set
# [8] = treatment-emergent AESI, Safety Set, listed as ponesimod
# [9] = treatment-emergent, Safety Set, listed as ponesimod
compound,measurement,setting,value
"CCC/N=C1\S/C(=C\c2ccc(OC[C@H](O)CO)c(Cl)c2)C(=O)N1c1ccccc1C [Ponesimod, (R)-5-[3-chloro-4-(2,3-dihydroxy-propoxy)-benz[Z]ylidene]-2-([Z]-propylimino)-3-o-tolyl-thiazolidin-4-one]","Time to first 24-week CDA, hazard ratio ponesimod vs teriflunomide","[1]; Full Analysis Set, exploratory",0.84
same,"Time to first 12-week CDA, hazard ratio ponesimod vs teriflunomide","[1]; Full Analysis Set, stratified Cox regression",0.83
same,Reduction of risk of 12-week CDA compared to teriflunomide,[1]; [5],17%
same,Reduction of risk of 24-week CDA compared to teriflunomide,[1]; [5],16%
same,Subjects with a 12-week CDA up to EOS,[1]; [6],10.1%
same,Subjects with a 24-week CDA up to EOS,"[1]; ponesimod 20 mg, teriflunomide 14 mg, exploratory",8.1%
same,"AESI effect on heart rate and rhythm (including hypotension) on Day 1: subjects with at least one AE, %",[2]; Safety Set,(2.1) %
same,"AESI effect on heart rate and rhythm (including hypotension) on Day 1: subjects with at least one AE, %","[2]; Safety Set, listed as ponesimod",2.1%
same,"Day 1 AESI PT Atrioventricular block first degree, %","[2]; Day 1, Safety Set",(0.5) %
same,"Day 1 AESI PT Bradycardia, %","[2]; Day 1, Safety Set",(0.7) %
same,"Day 1 AESI PT Bundle branch block left, %","[2]; Day 1, Safety Set",(0.2) %
same,"Day 1 AESI PT Bundle branch block right, %","[2]; Day 1, Safety Set",(0.2) %
same,"Day 1 AESI PT Defect conduction intraventricular, %","[2]; Day 1, Safety Set",(0.4) %
same,"Day 1 AESI PT Sinus arrhythmia, %","[2]; Day 1, Safety Set",(0.2) %
same,"Day 1 AESI PT Sinus bradycardia, %","[2]; Day 1, Safety Set",(0.2) %
same,"TEAE ALT increased, subjects",[2]; [6],19.5%
same,"TEAE headache, subjects",[2]; [6],11.5%
same,"TEAE nasopharyngitis, subjects",[2]; [6],19.3%
same,"TEAE upper respiratory tract infection, subjects",[2]; [6],10.6%
same,"AESI category Effect on heart rate and rhythm (including aypotension), %",[2]; [7],(5.1) %
same,"AESI category Hepatobiliary disorders/Liver enzyme abnormality, %",[2]; [7],(25.7) %
same,"AESI category Herpetic infection, %",[2]; [7],(4.8) %
same,"AESI category Hypertension, %",[2]; [7],(10.1) %
same,"AESI category Macular edema, %",[2]; [7],(1.1) %
same,"AESI category Non-skin malignancy, %",[2]; [7],(0.2) %
same,"AESI category Pulmonary events, %",[2]; [7],(8.0) %
same,"AESI category Seizure, %",[2]; [7],(1.4) %
same,"AESI category Skin malignancy, %",[2]; [7],(0.9) %
same,"AESI category Hepatobiliary disorders/Liver enzyme abnormality, %",[2]; [8],25.7%
same,"AESI category Hypertension, %",[2]; [8],10.1%
same,"AESI category Pulmonary events, %",[2]; [8],8.0%
same,"AESI category Infection, %","[2]; treatment-emergent AESI, only if reported as serious or severe, Safety Set",(1.6) %
same,"AEs leading to premature discontinuation, SOC Blood and lymphatic system disorders, %","[2]; treatment-emergent, Safety Set",(0.5) %
same,"AEs leading to premature discontinuation, SOC Cardiac disorders, %","[2]; treatment-emergent, Safety Set",(0.2) %
same,"AEs leading to premature discontinuation, SOC Eye disorders, %","[2]; treatment-emergent, Safety Set",(0.9) %
same,"AEs leading to premature discontinuation, SOC Gastrointestinal disorders, %","[2]; treatment-emergent, Safety Set",(0.7) %
same,"AEs leading to premature discontinuation, SOC General disorders and administration site conditions, %","[2]; treatment-emergent, Safety Set",(0.5) %
same,"AEs leading to premature discontinuation, SOC Hepatobiliary disorders, %","[2]; treatment-emergent, Safety Set",(0.5) %
same,"AEs leading to premature discontinuation, SOC Investigations, %","[2]; treatment-emergent, Safety Set",(2.1) %
same,"AEs leading to premature discontinuation, SOC Musculoskeletal and connective tissue disorders, %","[2]; treatment-emergent, Safety Set",(0.2) %
same,"AEs leading to premature discontinuation, SOC Neoplasms benign, malignant and unspecified (incl cysts and polyps), %","[2]; treatment-emergent, Safety Set",(0.2) %
same,"AEs leading to premature discontinuation, SOC Nervous system disorders, %","[2]; treatment-emergent, Safety Set",(0.4) %
same,"AEs leading to premature discontinuation, SOC Pregnancy, puerperium and perinatal conditions, %","[2]; treatment-emergent, Safety Set",(0.5) %
same,"AEs leading to premature discontinuation, SOC Psychiatric disorders, %","[2]; treatment-emergent, Safety Set",(0.2) %
same,"AEs leading to premature discontinuation, SOC Respiratory, thoracic and mediastinal disorders, %","[2]; treatment-emergent, Safety Set",(1.2) %
same,"AEs leading to premature discontinuation, SOC Skin and subcutaneous tissue disorders, %","[2]; treatment-emergent, Safety Set",(0.2) %
same,"AEs leading to premature discontinuation, SOC Social circumstances, %","[2]; treatment-emergent, Safety Set",(0.4) %
same,"AEs leading to premature discontinuation, SOC Vascular disorders, %","[2]; treatment-emergent, Safety Set",(0.5) %
same,"Subjects with at least one AE leading to study drug discontinuation, %","[2]; treatment-emergent, Safety Set",(8.7) %
same,"Subjects with at least one AE, %","[2]; treatment-emergent, Safety Set",(88.8) %
same,"Subjects with at least one Drug-Related AE, %","[2]; treatment-emergent, Safety Set",(49.2) %
same,"Subjects with at least one Serious AE, %","[2]; treatment-emergent, Safety Set",(8.7) %
same,"Subjects with at least one Severe AE, %","[2]; treatment-emergent, Safety Set",(6.9) %
same,"Subjects with at least one AE leading to study drug discontinuation, %",[2]; [9],8.7%
same,"Subjects with at least one AE, %",[2]; [9],88.8%
same,"Subjects with at least one Serious AE, %",[2]; [9],8.7%
same,2nd or higher degree AV block,"[3]; Day 1, first dose",No 2nd or higher degree AV block was observed
same,Subjects meeting discharge criteria at 4 hours post-dose,"[3]; Day 1, first dose",ca. 99%
same,ECG HR effect: time of nadir post-dose,"[3]; Day 1, ponesimod 2 mg",2 h
same,Mean heart rate change compared to pre-dose at 2-hours post dose,"[3]; Day 1, 12-lead ECG, Safety Set",−8.7 bpm
same,Subjects with asymptomatic post-dose HR≤40 bpm,"[3]; Day 1, all with pre-treatment HR <55 bpm",3
same,"Odds ratio for achieving NEDA-3, PON vs TER",[4]; At week 108,1.70
same,Patients who achieved NEDA-3,[4]; At week 108,28.2%
same,Mean number of new Gd+T1 lesions per scan,[4]; baseline to week 108,0.18
same,Mean numbers of new/enlarging T2 lesions per year,[4]; baseline to week 108,1.40
same,"Rate ratio, new Gd+T1 lesions per scan, PON vs TER",[4]; baseline to week 108,0.42
same,"Rate ratio, new/enlarging T2 lesions per year, PON vs TER",[4]; baseline to week 108,0.44
same,Least square (LS) mean difference (PON-TER) in change from baseline in total volume of T2 lesions,"[4]; baseline to week 108, PON 20 mg vs TER 14 mg",−399.2 mm^3
same,PON vs TER odds ratio for absence of new Gd+T1 lesions,[4]; week 108,2.18
same,PON vs TER odds ratio for absence of new/enlarging 12 lesions,[4]; week 108,1.71
